Common to all, as to format: cell-based, human
One assay relates to HTT mRNA. The experiment in a line: RT-qPCR splicing assay, HTT canonical (CJ) and alternative (AJ) junction mRNA. As to conditions: for AC50: read-out: HTT AJ (AC50, increase in AJ mRNA). As to the method: (§1) Compounds described herein were used to modulate RNA transcript abundance in cells. The expression of a target mRNA was measured by detecting the formation of an exon-exon junction in the canonical transcript (CJ). A compound mediated exon-inclusion event was detected by observing an increase in formation of a new junction with an alternative exon (AJ). Real-time qPCR assays were used to detect these splicing switches and interrogate the potency of various compounds towards different target genes. A high-throughput real time quantitative PCR (RT-qPCR) assay was developed to measure these two isoforms of the mRNA (CJ and AJ) for exemplary genes, such as HTT, SMN2, and MYB, together with a control housekeeping gene, GAPDH or GUSB or PPIA, used for normalization. Briefly, the A673 or K562 cell line was treated with various compounds described herein (e.g., compounds of Formula (I), (II), (III), (IV)). After treatment, the levels of the HTT, MYB, or SMN2 mRNA targets were determined from each sample of cell lysate by cDNA synthesis followed by qPCR.
(§2) The A673 cell line was cultured in DMEM with 10% FBS. Cells were diluted with full growth media and plated in a 96-well plate (15,000 cells in 100ul media per well). The plate was incubated at 37° C. with 5% CO2 for 24 hours to allow cells to adhere. An 11-point 3-fold serial dilution of the compounds was made in DMSO then diluted in media in an intermediate plate. Compounds were transferred from the intermediate plate to the cell plate with the top dose at a final concentration of 10 uM in the well. Final DMSO concentration was kept at or below 0.25%. The cell plate was returned to the incubator at 37° C. with 5% CO2 for an additional 24 hours.
(§3) The K562 cell line was cultured in IMDM with 10% FBS. For K562, cells were diluted with full growth media and plated in either a 96-well plate (50,000 cells in 50 uL media per well) or a 384-well plate (8,000-40,000 cells in 45 uL media per well). An 11-point 3-fold serial dilution of the compounds were made in DMSO then diluted in media in an intermediate plate.
(§4) Compound was transferred from the intermediate plate to the cell plate with the top dose at a final concentration of 10 uM in the well. Final DMSO concentration was kept at or below 0.25%.
(§5) Final volume was 100 uL for 96-well plate and 50 uL for 384-well plate. The cell plate was then placed in an incubator at 37° C. with 5% CO2 for 24 hours.
(§6) The cells were then gently washed with 50 uL-100 uL cold PBS before proceeding to addition of lysis buffer. 30 uL-50 μL of room temperature lysis buffer with DNAse I (and optionally RNAsin) was added to each well. Cells were shaken/mixed thoroughly at room temperature for 5-10 minutes for lysis to take place and then 3 uL-5 μL of room temperature stop solution was added and wells were shaken/mixed again. After 2-5 minutes, the cell lysate plate was transferred to ice for RT-qPCR reaction setup. The lysates could also be frozen at −80° C. for later use.
(§7) In some cases, a direct lysis buffer was used. An appropriate volume of 3× lysis buffer (10 mM Tris, 150 mM NaCl, 1.5%-2.5% Igepal and 0.1-1 U/uL RNAsin, pH 7.4) was directly added to either K562 or A673 cells in media and mixed by pipetting 3 times. The plates were then incubated at room temperature with shaking/rocking for 20-50 minutes to allow for lysis to take place. After this time, the cell lysate plate was transferred to ice to set up for the RT-qPCR reactions. The lysates could also be frozen at −80° C. for later use.
(§8) To set up 10 uL RT-qPCR reactions, cell lysates were transferred to 384-well qPCR plates containing the master mix according to the table below. The plates were sealed, gently vortexed, and spun down before the run. The volumes were adjusted accordingly in some instances where the reaction was carried in 20 μL. The table below summarizes the components of the RT-qPCR reactions: […]
Background: In qPCR the cycle at which signal appears reflects the starting amount.

The next assay has as its system MYB mRNA. Description: RT-qPCR splicing assay, MYB canonical (CJ) and alternative (AJ) junction mRNA. To be noted: for AC50: read-out: MYB AJ (AC50, increase in AJ mRNA). As to the method: as §1, §2, §3, §4, §5, §6, §7, §8
The subject of a further assay is SMN2 mRNA. Description: RT-qPCR splicing assay panel, SMN2 canonical junction (CJ) mRNA. As to conditions: canonical junction (CJ) mRNA, RT-qPCR panel, Table 4A, read-out: SMN2, decrease in CJ mRNA levels, IC50. As to the method:
as §1, §2, §3, §4, §5, §6, §7, §8

The next assay deals with Target C mRNA. The experiment in a line: RT-qPCR splicing assay panel, Target C canonical junction (CJ) mRNA. As to conditions: Homo sapiens, canonical junction (CJ) mRNA, RT-qPCR panel, Table 4A; read-out: Target C, decrease in CJ mRNA levels, IC50. As to the method: as §1, §2, §3, §4, §5, §6, §7, §8
Setting [1] is: Homo sapiens, 24 h, Table 3A, A673 or K562 cells, 24 h treatment.
[2] abbreviates: Homo sapiens, 24 h, Table 3A, A673 or K562 cells, 24 h treatment, read-out: HTT CJ (IC50, decrease in CJ mRNA).
Setting [3] is: Homo sapiens, canonical junction (CJ) mRNA, RT-qPCR panel, Table 4A, read-out: HTT, decrease in CJ mRNA levels, IC50.
The mark [4] stands for this setting: Homo sapiens, 24 h, Table 3A, A673 or K562 cells, 24 h treatment, read-out: MYB CJ (IC50, decrease in CJ mRNA).
Setting [5] is: Homo sapiens, canonical junction (CJ) mRNA, RT-qPCR panel, Table 4A, read-out: MYB, decrease in CJ mRNA levels, IC50.
The mark [6] stands for this setting: Table 3A, A673 or K562 cells, 24 h treatment, read-out: MYB CJ (IC50, decrease in CJ mRNA).

Read-outs that look alike come from different tables or passages of the source.

Drawing on patent US20250333397A1 (REMIX THERAPEUTICS INC., priority 2021, published 2025), this text covers AC50 and IC50 for 14 molecules.

Usually AC50 stands for the concentration at which the activity in the assay is half-maximal. As usually defined, the IC50 is the concentration that inhibits the measured activity by half. In the case of `CN(C)c1cc(-c2ccc(-c3ccc(N4CCC(NC5CCC5)C4)nn3)c(O)c2)cnn1` (stereo not shown) [Compound 409], the AC50 with HTT mRNA (setting [1]) and in the assay with MYB mRNA (setting [1]) was > 10 µM throughout. For the same molecule, the IC50 in the assay on HTT mRNA (setting [2]), with HTT mRNA (setting [3]), with MYB mRNA (setting [4]), with MYB mRNA (setting [5]), with SMN2 mRNA (Homo sapiens) and with Target C mRNA was > 10 µM throughout.
As to `COc1cc(-c2ccc(-c3ccc(N4CCC(CNC5CCC5)C4)nn3)c(O)c2)cnn1` (stereo not shown) [Compound 348, 2-(6-{3-[(cyclobutylamino)methyl]pyrrolidin-1-yl}pyridazin-3-yl)-5-(6-methoxypyridazin-4-yl)phenol], the values for the AC50 with HTT mRNA (setting [1]) and with MYB mRNA (setting [1]) were 0.1 to 1 µM and 1 to 10 µM, respectively. In addition, the IC50 is < 0.1 µM with HTT mRNA (setting [2]); < 0.1 µM with HTT mRNA (setting [3]); 0.1 to 1 µM in the assay on MYB mRNA (setting [4]); 0.1 to 1 µM with MYB mRNA (setting [5]); < 0.1 µM in the assay on SMN2 mRNA (Homo sapiens); 0.1 to 1 µM with Target C mRNA.
For `Cc1ncc(-c2cc(O)c(-c3ccc(N4CC[C@H](NC5CCC5)C4)nn3)cc2F)o1` [Compound 229, 2-{6-[(3S)-3-(cyclobutylamino)pyrrolidin-1-yl]pyridazin-3-yl}-4-fluoro-5-(2-methyl-1,3-oxazol-5-yl) phenol], the AC50 in the assay with HTT mRNA (setting [1]) is < 0.1 µM; in the assay with MYB mRNA (setting [1]) it was 0.1 to 1 µM. Further, the half-inhibitory concentration (IC50) with HTT mRNA (setting [2]) was < 0.1 µM; in the assay on HTT mRNA (setting [3]), < 0.1 µM; with MYB mRNA (setting [4]), 0.1 to 1 µM; with MYB mRNA (setting [5]) it was 0.1 to 1 µM; with SMN2 mRNA (Homo sapiens), < 0.1 µM; in the assay on Target C mRNA, 0.1 to 1 µM.
Turning to `CN(C1CCC1)[C@H]1CCN(c2ccc(-c3cc(F)c(-c4cn[nH]c4)cc3O)nn2)C1` [Compound 295], the figures for the AC50 with HTT mRNA (setting [1]) and in the assay on MYB mRNA (setting [1]) were < 0.1 µM and 0.1 to 1 µM, respectively. For the same molecule, the IC50 was < 0.1 µM in the assay with HTT mRNA (setting [2]); < 0.1 µM with HTT mRNA (setting [3]); 0.1 to 1 µM with MYB mRNA (setting [4]); 0.1 to 1 µM in the assay with MYB mRNA (setting [5]); < 0.1 µM with SMN2 mRNA (Homo sapiens); < 0.1 µM in the assay with Target C mRNA.
For `COc1cc(-c2ccc(-c3ccc(N4CC[C@@H](NC5(CF)CC5)C4)nn3)c(O)c2)cnn1` [Compound 242, 2-{6-[(3R)-3-{[1-(fluoromethyl)cyclopropyl]amino}pyrrolidin-1-yl]pyridazin-3-yl}-5-(6-methoxypyridazin-4-yl)phenol], the half-maximal activity concentration (AC50) with HTT mRNA (setting [1]) and with MYB mRNA (setting [1]) was 0.1 to 1 µM in each case. In addition, the IC50 in the assay with HTT mRNA (setting [2]) was < 0.1 µM; with MYB mRNA (setting [4]) it was 0.1 to 1 µM.
Take `COc1cc(-c2cc(O)c(-c3ccc(N4CC[C@@H](N(C)C(C)(C)C)C4)nn3)cc2F)cnn1` [Compound 235, 2-{6-[(3R)-3-[tert-butyl(methyl)amino]pyrrolidin-1-yl]pyridazin-3-yl}-4-fluoro-5-(6-methoxypyridazin-4-yl)phenol]: the concentration at half-maximal activity (AC50) with HTT mRNA (setting [1]) was < 0.1 µM; with MYB mRNA (setting [1]), 0.1 to 1 µM. Moreover, the IC50 in the assay with HTT mRNA (setting [2]) is < 0.1 µM; with MYB mRNA (setting [4]), 0.1 to 1 µM.
Regarding `COc1cc(-c2ccc(-c3ccc(N4CC[C@H](NC5(CF)CC5)C4)nn3)c(O)c2)cnn1` [Compound 241, 2-{6-[(3S)-3-{[1-(fluoromethyl)cyclopropyl]amino}pyrrolidin-1-yl]pyridazin-3-yl}-5-(6-methoxypyridazin-4-yl)phenol], the AC50 in the assay on HTT mRNA (setting [1]) and in the assay with MYB mRNA (setting [1]) was 0.1 to 1 µM throughout. Moreover, the half-inhibitory concentration (IC50) in the assay with HTT mRNA (setting [2]) is < 0.1 µM; in the assay with MYB mRNA (setting [4]), 0.1 to 1 µM.
With `COc1cc(-c2ccc(-c3ccc(N4CC[C@H](N(C)C5CCC5)C4)nn3)c(O)c2)cnn1` [Compound 239], the AC50 with HTT mRNA (setting [1]) is < 0.1 µM; in the assay with MYB mRNA (setting [1]) it was 0.1 to 1 µM. Besides, the 50% inhibitory concentration (IC50) with HTT mRNA (setting [2]) is < 0.1 µM; in the assay on MYB mRNA (setting [4]), 0.1 to 1 µM.
As for `Cc1ncc(-c2cc(O)c(-c3ccc(N4CC[C@H](N[C@H](C)C5CC5)C4)nn3)cc2F)s1` [Compound 394], the IC50 in the assay on HTT mRNA (Table 3A, A673 or K562 cells, 24 h treatment, read-out: HTT CJ (IC50, decrease in CJ mRNA)) was < 0.1 µM; with MYB mRNA (setting [6]), < 0.1 µM; in the assay on SMN2 mRNA, < 0.1 µM. Also, in the assay with MYB mRNA (Table 3A, A673 or K562 cells, 24 h treatment), the AC50 is < 0.1 µM.
Regarding `Cn1cnc(-c2ccc(-c3ccc(N4CC[C@H](NC(C)(C)C)C4)nn3)c(O)c2)cc1=O` [Compound 236, 6-(4-{6-[(3S)-3-(tert-butylamino)pyrrolidin-1-yl]pyridazin-3-yl}-3-hydroxyphenyl)-3-methylpyrimidin-4-one], the AC50 in the assay with HTT mRNA (setting [1]) and in the assay with MYB mRNA (setting [1]) was 0.1 to 1 µM in each case. For the same molecule, the IC50 in the assay on HTT mRNA (setting [2]) and in the assay on MYB mRNA (setting [4]) was 0.1 to 1 µM each time.
As to `COc1cc(-c2cc(O)c(-c3ccc(N4CC[C@H](N(C)C(C)(C)C)C4)nn3)cc2F)cnn1` [Compound 234, 2-{6-[(3S)-3-[tert-butyl(methyl)amino]pyrrolidin-1-yl]pyridazin-3-yl}-4-fluoro-5-(6-methoxypyridazin-4-yl)phenol], the concentration at half-maximal activity (AC50) with HTT mRNA (setting [1]) and in the assay on MYB mRNA (setting [1]) was < 0.1 µM throughout. The IC50 in the assay with HTT mRNA (setting [2]) and with MYB mRNA (setting [4]) was < 0.1 µM each time.
In the case of `Cc1nnc(-c2ccc(-c3ccc(N4CC[C@@H](NCC5CC5)C4)nn3)c(O)c2)s1` [Compound 416], the IC50 in the assay on MYB mRNA (setting [6]) is 0.1 to 1 µM; in the assay with SMN2 mRNA, < 0.1 µM.
Consider `COc1cc(-c2ccc(-c3ccc(N4CC[C@@H](N(C)C5CCC5)C4)nn3)c(O)c2)cnn1` [Compound 238, 2-{6-[(3R)-3-[cyclobutyl(methyl)amino]pyrrolidin-1-yl]pyridazin-3-yl}-5-(6-methoxypyridazin-4-yl)phenol], for which the AC50 in the assay with HTT mRNA (setting [1]) and with MYB mRNA (setting [1]) was 0.1 to 1 µM in each case. The IC50 in the assay on HTT mRNA (setting [2]) is < 0.1 µM; with MYB mRNA (setting [4]), 0.1 to 1 µM.
Turning to `Cn1cnc(-c2ccc(-c3ccc(N4CC[C@@H](NC(C)(C)C)C4)nn3)c(O)c2)cc1=O` [Compound 237, 6-(4-{6-[(3R)-3-(tert-butylamino)pyrrolidin-1-yl]pyridazin-3-yl}-3-hydroxyphenyl)-3-methylpyrimidin-4-one], the AC50 was < 0.1 µM in the assay on HTT mRNA (setting [1]) and 0.1 to 1 µM in the assay with MYB mRNA (setting [1]). For the same molecule, the figures for the IC50 with HTT mRNA (setting [2]) and in the assay with MYB mRNA (setting [4]) were < 0.1 µM and 0.1 to 1 µM, respectively.
